Data set [1] can be described thus: Fuel solubility: miscibility in blends with commercial diesel. It is filed as physicochemical. An excerpt:
Fuel solubility is a primary concern for diesel fuel applications. Not all highly polar oxygenates have good solubility in the current commercial diesel fuels.
The engine is run stationary with regular diesel initially, after which the fuel supply is switched to the 40 vol % tBMF-diesel blend.

A short description of data set [2]: Oxidation stability of blend with additive free diesel fuel (NF en ISO 12205). Type of data set: physicochemical. The following applies: 0.1 vol % blend with additive free diesel fuel. As for the experimental part:
Likewise, oxygenated fuel additives, certainly when containing an aldehyde functional group, often reduce the oxidation stability of the base diesel fuel. A 0.1 vol % blend of tBMF with additive free diesel fuel was prepared at an outside laboratory for oxidation stability determination according to NF en ISO 12205 certified methods.

Like-named read-outs stand apart in the source and are kept apart here.

As to `CCOCc1ccc(C=O)o1` [EMF, ethoxymethylfurfural, reference compound], the figures for the “miscibility with commercial diesel” value in data set [1] (5 vol % blend with commercial diesel), in data set [1] (25 vol % blend with commercial diesel) and in data set [1] (40 vol % blend with commercial diesel) were “completely miscible”, “phase separation occurs” and “phase separation occurs”, respectively.
For `CC(C)(C)OCc1ccc(C=O)o1` [tBMF, 5-(tert-Butoxymethyl)furfural], in data set [1], the “miscibility with commercial diesel” value is reported as “completely miscible” and the “mixing or flocculation problems” value is “does not yield any mixing or flocculation problems”. The “oxidation stability versus reference additive-free diesel” value in data set [2] is recorded as “same oxidation stability”.

The values above are taken from patent publication US20100218416A1, “HYDROXYMETHYLFURFURAL ETHERS FROM SUGARS OR HMF AND BRANCHED ALCOHOLS” (FURANIX TECHNOLOGIES B.V., priority 2007, published 2010).
